In paper PMC5131319, “Occurrence, temporal trends, and half-lives of perfluoroalkyl acids (PFAAs) in occupational workers in China” (Scientific Reports, 2016):
“And” between values parts separate entries of the source, which are not always exact repeats. Equal entries are not always repeated. Where two headings read alike, the source gives them in different places.

Key:
[1] = Half-life estimated by daily clearance rates (first-order model, k = Cltotal/Vd); format: in vivo, human; details: for half-life: human, serum and urine, other: occupational exposure
Text: Olsen et al.[21] found linear relationship between the logarithm of serum PFAAs concentration and time, and a first order model was adopted to estimate the half-lives of PFAAs. The elimination of PFAAs in humans was also described with the following equation: […]
If we set C(t) as 1/2C0, then the half-life
where k is the elimination rate constant. We calculated k using two approaches in the present study. In the first approach, k is defined as Cltotal/Vd, where Vd stands for the volume of distribution of PFAAs in the human body. Cltotal represents the total daily PFAAs clearance in the human body; for men and women older than 50, it refers to renal clearance, while for young women, it is defined as the sum of menstrual clearance and renal clearance. To keep consistency with other studies, Vd of PFOS and PFHxS were set at 230 mL kg^−1, and Vd of PFOA was set at 170 mL kg^−1 in this study. In the second approach, k is defined as the average annual decline rates of PFAAs in workers who participated in this study.
We used a first order model to estimate the half-lives of PFAAs in workers (Eq (2)). k was defined as […], where Cltotal referred to renal clearance for men and women older than 50 and to the sum of menstrual clearance and renal clearance for young women. According to Eq (2), the half-lives of PFHxS, PFOA, and PFOS for the occupational workers tested ranged from 0.51–3799 years, 0.44–3663 years, and 0.76–30475 years, with GM and median values of 14.7 and 11.7, 4.1 and 4.0, 32.6 and 21.6 years, respectively (Table 2). […] The GM values of the half-lives of PFHxS, PFOA, and PFOS for men here were 19.9, 4.7, and 60.9 years, respectively, while those for women were 7.5, 3.1, and 8.0 years, respectively. The half-lives estimated by the limited clearance route information could be considered as the upper limits for PFAAs. It seemed likely that the unrealistically long half-life estimates derived from the urinary data were actually evidence of the contribution of fecal elimination to the clearance of these chemicals. The extremely long half-lives of PFAAs, such as 3799 years for PFHxS, 3663 years for PFOA, and 30475 years for PFOS, were caused by the application of LOD/2 instead of ND in workers’ urine samples. The geometric mean or median value of the PFAAs half-lives can better reflect the actual situation.

[2] = Daily renal clearance rate (Clrenal) and serum-to-urine ratio from paired serum and urine; format: in vivo, human; details: for Ratio of serum-to-urine concentrations (S/U), GM: all samples; for Clrenal, GM / Clrenal, range: all workers; for Clrenal, range: minimum on the basis of LOD/2; for Renal clearance rate (PFOS): individual workers
Text: The positive correlations between the PFAAs in the serum and the paired urine samples were highly statistically significant, with correlation coefficients of 0.87, 0.64, and 0.72 for PFHxS, PFOA, and PFOS, respectively, (p < 0.01). […] Additionally, the relative abundances of PFOS, PFHxS, and PFOA between the serum and paired urine samples were quite different. The relative abundances in the serum are 64%, 24%, and 12%, respectively, while those in the urine were 19%, 31%, and 40%, respectively. […] Moreover, the ratio of serum-to-urine concentrations (S/U) might be an indicator for PFAA excretion in humans because PFAAs could concentrate in serum while urine excretion is considered an important PFAA elimination pathway. The GM values of S/U for PFHxS, PFOA, and PFOS in all samples were 697, 288, and 1782, respectively, indicating the difficulty in PFAA renal elimination from the workers. To exclude the potential effect of individual differences related to demographic information such as body weight and gender, the daily renal clearance rate (Clrenal) was introduced in the study. Clrenal is a parameter defined in Eq (3) that adjusts the S/U through body weight and the gender-specific daily urine excretion volume.
Paired samples with either concentration under the LOD were set as LOD/2 in the Clrenal study. The urine excretion volumes of males and females were set at 1.4 and 1.2 L/day in the study, respectively, and the body weight values of individual workers were obtained from our questionnaires. The calculated Clrenal values for PFHxS, PFOA, PFOS ranged from 2.0 × 10^−4 to 2.3, 9.0 × 10^−5 to 2.4, and 5.0 × 10^−5 to 0.54 mL day^−1 kg^−1 with GM values of 0.023, 0.067 and 0.010 mL day^−1 kg^−1, respectively (Fig. 3). The minimum values of the PFAAs Clrenal were calculated on the basis of LOD/2 instead of ND (not detected) in the present study. […] However, Zhang et al. observed that the Clrenal of PFHxS was the lowest among these 3 type of PFAAs[28]. The median Clrenal of PFAAs in the present study was similar to that of Zhou et al.’s study (0.012 mL day^−1 kg^−1 for PFHxS, 0.061 mL day^−1 kg^−1 for PFOA, and 0.010 mL day^−1 kg^−1 for PFOS)[39]. In contrast, as noted elsewhere, the Clrenal values of PFOA were the highest among those of the three PFAAs[28][38]. The most recent study on the elevated serum concentrations of PFAAs in fishery employees from Tangxun Lake also stated that the median Clrenal of PFOA (0.061 mL day^−1 kg^−1) was higher than those of the PFHxS and PFOS (0.012 and 0.010 mL day^−1 kg^−1)[39]. […] Moreover, the renal clearance rates of PFAAs in humans were not obviously influenced by the PFAAs level in the serum. […] In addition, gender could not be discounted. The Clrenal values of PFOS for the male workers were significant lower than those for the females (p < 0.01). Wong et al. studied the elimination rate constant of PFOS in a USA population and speculated that there might be other sex-specific elimination routes other than menstruation between men and women. No significant differences were found between the Clrenal values of PFOA and PFHxS for the males and females tested in the study.

[3] = cited from earlier work; for Half-life based on serum concentrations: humans
[4] = Female workers, number 71, menstrual clearance added to renal clearance
[5] = Male workers, number 136, renal clearance
[6] = retired fluorochemical production workers

Row | SMILES | Half-life estimated through daily elimination, Max [1, 4] | Half-life estimated through daily elimination, Min [1, 4] | Half-life estimated through daily elimination, Min [1, 5] | Half-life estimated through daily elimination, Min ([1]; Total workers, number 207) | Ratio of serum-to-urine concentrations (S/U), GM [2] | Clrenal, GM [2] | Clrenal, range [2] | Shortest half-life in humans reported in previous studies [3] | Half-life based on serum concentrations [3] | Half-life (GM) [3, 6] | Half-life by daily clearance (GM) ([3]; young females) | also measured
1 | O=S(=O)(O)C(F)(F)C(F)(F)C(F)(F)C(F)(F)C(F)(F)C(F)(F)C(F)(F)C(F)(F)F [PFOS, perfluorooctanesulfonate] | 15.1 years | 0.76 years | 2.7 years | 0.76 years | 1782 | 0.010 mL/day/kg | 5.0 × 10^−5 to 0.54 mL day^−1 kg^−1 | 3.7 years | more than 5 years | 4.8 years | 5.1 years | Half-life estimated through daily elimination, GM [1, 4]: 8.0 years; Half-life estimated through daily elimination, Median [1, 4]: 9.4 years; Renal clearance rate (PFOS) ([2]; sampling year 2009): 0.028 mL/day/kg and 0.066 mL/day/kg and 0.010 mL/day/kg and 0.013 mL/day/kg and 0.009 mL/day/kg and 0.037 mL/day/kg and 0.018 mL/day/kg and 0.001 mL/day/kg and 0.035 mL/day/kg and 0.004 mL/day/kg and 0.005 mL/day/kg and 0.006 mL/day/kg and 0.003 mL/day/kg and 0.019 mL/day/kg and 0.023 mL/day/kg and 0.007 mL/day/kg and 0.017 mL/day/kg and 0.024 mL/day/kg and 0.030 mL/day/kg and 0.014 mL/day/kg and 0.002 mL/day/kg and 0.032 mL/day/kg; Renal clearance rate (PFOS) ([2]; sampling year 2010): 0.038 mL/day/kg and 0.013 mL/day/kg and 0.014 mL/day/kg and 0.058 mL/day/kg and 0.002 mL/day/kg and 0.004 mL/day/kg and 0.048 mL/day/kg and 0.039 mL/day/kg and 0.008 mL/day/kg and 0.005 mL/day/kg and 0.028 mL/day/kg and 0.009 mL/day/kg and 0.041 mL/day/kg and 0.007 mL/day/kg and 0.027 mL/day/kg and 0.026 mL/day/kg and 0.006 mL/day/kg and 0.034 mL/day/kg and 0.083 mL/day/kg and 0.020 mL/day/kg and 0.017 mL/day/kg and 0.025 mL/day/kg and 0.010 mL/day/kg; Renal clearance rate (PFOS) ([2]; sampling year 2011): 0.007 mL/day/kg and 0.009 mL/day/kg and 0.024 mL/day/kg and 0.052 mL/day/kg and 0.018 mL/day/kg and 0.016 mL/day/kg and 0.028 mL/day/kg and 0.021 mL/day/kg and 0.017 mL/day/kg and 0.029 mL/day/kg and 0.004 mL/day/kg and 0.006 mL/day/kg and 0.003 mL/day/kg and 0.025 mL/day/kg and 0.001 mL/day/kg and 0.013 mL/day/kg and 0.023 mL/day/kg and 0.022 mL/day/kg and 0.020 mL/day/kg and 0.033 mL/day/kg and 0.002 mL/day/kg and 0.091 mL/day/kg and 0.039 mL/day/kg and 0.041 mL/day/kg; Half-life, population-based pharmacokinetic model ([3]; US NHANES cross-sectional data 1999 to 2012): 3.7 years; Half-life by daily clearance (GM) ([3]; males and older females): 18 years; half-life ([3]; males and older females): exceeded 10 years; Half-life, 95% CI [3, 6]: 3.9–6.9 years; half-life [3, 6]: approximately 5 years
2 | O=S(=O)(O)C(F)(F)C(F)(F)C(F)(F)C(F)(F)C(F)(F)C(F)(F)F [PFHxS, perfluorohexane sulfonate] | 15.1 years | 2.8 years | 0.51 years | 0.51 years | 697 | 0.023 mL/day/kg | 2.0 × 10^−4 to 2.3 mL day^−1 kg^−1 | 7.3 years | more than 5 years | 7.3 years | 7.8 years | half-life ([1]; both sexes, Total workers, number 207, read-out: Half-life estimated through daily elimination, GM (converted)): 5370 days; half-life ([1]; both sexes, Total workers, number 207, read-out: Half-life estimated through daily elimination, Median (converted)): 4270 days; half-life ([1]; female, Female workers, number 71, menstrual clearance added to renal clearance, read-out: Half-life estimated through daily elimination, GM (converted)): 2740 days; half-life ([1]; female, Female workers, number 71, menstrual clearance added to renal clearance, read-out: Half-life estimated through daily elimination, Median (converted)): 2780 days; half-life ([1]; male, Male workers, number 136, renal clearance, read-out: Half-life estimated through daily elimination, Median (converted)): 5300 days
